The values below are quoted from earlier work in US20070259820A1, “METHODS AND REAGENTS FOR ACTIVATING HEAT SHOCK PROTEIN 70” (THE REGENTS OF THE UNIVERSITY OF MICHIGAN, priority 2006, published 2007).

Data set [1] concerns Hsp70. Particulars: prior-art statement in background.
The test system of data set [2] is Hsp70. Particulars: prior-art statement in background. This is another data set of the same source.

`N=C(N)NCCCCCCC(=O)NC(O)C(=O)NCCCCNCCCN` (centres unmarked) [15-deoxyspergualin]: the “effect on Hsp70's ATPase activity” value with Hsp70 [1] is on record as “stimulate Hsp70's ATPase activity”.
On to `NCCCNCCCCNC(=O)[C@H](O)NC(=O)C[C@@H](O)CCCCN=C(N)N` [spergaulin], for which the “binding to Hsp70 in "pull-down" studies” value with Hsp70 [2] is listed as “bind Hsp70”.
